Laboratory results reported in PMC10263468, “Biosynthesis of cannabigerol and cannabigerolic acid: the gateways to further cannabinoid production” (Synthetic Biology, 2023).

Legend:
Test in all cases: endpoint assay, LC-MS quantification of product
AtaPT [1] = biological target: T1, AtaPT (Aspergillus terreus, UniProt A0A1B0UHJ4, E91A); assay type: biochemical; details: read-out: Apparent Km; co-substrate GPP 1 mM; 1 μM enzyme; 25 mM Tris pH 8, 150 mM NaCl, 5% glycerol; 25°C; approximate constant
T1 construct: gene PT; N-terminal His6 tag (pETM11), codon-optimised synthetic gene, E. coli ArcticExpress (DE3), purified
Description: (§1) endpoint assay, LC-MS quantification of product on AtaPT

AtaPT [2] = biological target: T2, AtaPT (Aspergillus terreus, UniProt A0A1B0UHJ4, E91D); assay type: biochemical; details: read-out: Apparent Km; co-substrate GPP 1 mM; 1 μM enzyme; 25 mM Tris pH 8, 150 mM NaCl, 5% glycerol; 25°C; approximate constant
T2 construct: gene PT; N-terminal His6 tag (pETM11), codon-optimised synthetic gene, E. coli ArcticExpress (DE3), purified
Description: as §1

AtaPT [3] = biological target: T3, AtaPT (Aspergillus terreus, UniProt A0A1B0UHJ4, E91Q); assay type: biochemical; details: read-out: Apparent Km; co-substrate GPP 1 mM; 1 μM enzyme; 25 mM Tris pH 8, 150 mM NaCl, 5% glycerol; 25°C; approximate constant
T3 construct: gene PT; N-terminal His6 tag (pETM11), codon-optimised synthetic gene, E. coli ArcticExpress (DE3), purified
Description: as §1

[4] = system: CCCCCc1cc(O)cc(O)c1C(=O)O; assay type: biochemical, Aspergillus terreus; details: co-substrate GPP 1 mM, 10 μM enzyme, 25 mM Tris pH 8, 150 mM NaCl, 5% glycerol, 25°C, approximate constant (high enzyme concentration)
Description: as §1

T3 sequence (A0A1B0UHJ4 whole entry E91Q): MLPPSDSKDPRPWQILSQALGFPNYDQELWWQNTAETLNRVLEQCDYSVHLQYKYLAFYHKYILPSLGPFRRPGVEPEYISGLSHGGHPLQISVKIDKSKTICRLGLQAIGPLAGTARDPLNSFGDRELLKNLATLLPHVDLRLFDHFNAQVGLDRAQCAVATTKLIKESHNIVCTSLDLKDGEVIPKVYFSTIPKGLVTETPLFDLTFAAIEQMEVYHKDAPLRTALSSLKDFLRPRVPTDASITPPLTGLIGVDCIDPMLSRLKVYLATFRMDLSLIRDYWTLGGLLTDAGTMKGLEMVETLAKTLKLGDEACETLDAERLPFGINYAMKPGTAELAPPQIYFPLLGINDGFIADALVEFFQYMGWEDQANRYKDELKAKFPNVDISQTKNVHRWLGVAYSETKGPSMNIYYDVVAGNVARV
T2 sequence (A0A1B0UHJ4 whole entry E91D): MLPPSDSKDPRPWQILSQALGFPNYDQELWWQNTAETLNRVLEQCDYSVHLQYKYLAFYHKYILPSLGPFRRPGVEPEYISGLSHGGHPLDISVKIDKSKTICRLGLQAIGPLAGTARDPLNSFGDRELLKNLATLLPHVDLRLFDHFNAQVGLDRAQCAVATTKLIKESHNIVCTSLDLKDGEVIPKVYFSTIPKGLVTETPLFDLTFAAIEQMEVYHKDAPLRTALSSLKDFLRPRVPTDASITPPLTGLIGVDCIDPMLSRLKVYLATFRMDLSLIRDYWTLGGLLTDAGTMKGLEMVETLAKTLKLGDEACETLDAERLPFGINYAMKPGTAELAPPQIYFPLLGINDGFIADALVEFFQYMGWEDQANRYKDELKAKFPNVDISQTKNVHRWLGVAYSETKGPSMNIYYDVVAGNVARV
T1 sequence (A0A1B0UHJ4 whole entry E91A): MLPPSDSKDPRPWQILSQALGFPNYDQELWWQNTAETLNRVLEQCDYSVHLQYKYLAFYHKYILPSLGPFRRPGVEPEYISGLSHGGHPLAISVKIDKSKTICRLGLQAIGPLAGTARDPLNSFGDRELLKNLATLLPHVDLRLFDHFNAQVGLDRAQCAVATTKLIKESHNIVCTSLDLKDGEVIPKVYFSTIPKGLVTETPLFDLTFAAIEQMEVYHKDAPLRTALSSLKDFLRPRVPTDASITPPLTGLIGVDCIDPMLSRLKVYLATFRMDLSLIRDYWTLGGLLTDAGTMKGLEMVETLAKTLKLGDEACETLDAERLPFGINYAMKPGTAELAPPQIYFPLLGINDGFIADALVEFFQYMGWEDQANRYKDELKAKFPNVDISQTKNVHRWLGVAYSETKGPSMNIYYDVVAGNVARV

Row | Compound | Km (AtaPT [1]) | Km (AtaPT [2]) | Km (AtaPT [3]) | Km [4] | kcat [4]
1 | CCCCCc1cc(O)cc(O)c1C(=O)O [OA, olivetolic acid] | 332 ± 96 µM | 266 ± 44 µM | 94 ± 32 µM |  | 
2 | AtaPT (Aspergillus terreus) |  |  |  | 1083 ± 126 µM | 0.000147 ± 5e-06 s⁻¹
